What was measured:
androgen receptor (AR) = molecular target: T1, androgen receptor (AR) (Mus musculus, UniProt P19091); assay: Androgen receptor agonistic and antagonistic activity, PRE-tk-luciferase reporter in L929 cells; type: cell-based
T1 construct: in the L929 cells which express the AR but not the PR; endogenous in cells; host or cells: L929 cells
T1 sequence (P19091 1-899): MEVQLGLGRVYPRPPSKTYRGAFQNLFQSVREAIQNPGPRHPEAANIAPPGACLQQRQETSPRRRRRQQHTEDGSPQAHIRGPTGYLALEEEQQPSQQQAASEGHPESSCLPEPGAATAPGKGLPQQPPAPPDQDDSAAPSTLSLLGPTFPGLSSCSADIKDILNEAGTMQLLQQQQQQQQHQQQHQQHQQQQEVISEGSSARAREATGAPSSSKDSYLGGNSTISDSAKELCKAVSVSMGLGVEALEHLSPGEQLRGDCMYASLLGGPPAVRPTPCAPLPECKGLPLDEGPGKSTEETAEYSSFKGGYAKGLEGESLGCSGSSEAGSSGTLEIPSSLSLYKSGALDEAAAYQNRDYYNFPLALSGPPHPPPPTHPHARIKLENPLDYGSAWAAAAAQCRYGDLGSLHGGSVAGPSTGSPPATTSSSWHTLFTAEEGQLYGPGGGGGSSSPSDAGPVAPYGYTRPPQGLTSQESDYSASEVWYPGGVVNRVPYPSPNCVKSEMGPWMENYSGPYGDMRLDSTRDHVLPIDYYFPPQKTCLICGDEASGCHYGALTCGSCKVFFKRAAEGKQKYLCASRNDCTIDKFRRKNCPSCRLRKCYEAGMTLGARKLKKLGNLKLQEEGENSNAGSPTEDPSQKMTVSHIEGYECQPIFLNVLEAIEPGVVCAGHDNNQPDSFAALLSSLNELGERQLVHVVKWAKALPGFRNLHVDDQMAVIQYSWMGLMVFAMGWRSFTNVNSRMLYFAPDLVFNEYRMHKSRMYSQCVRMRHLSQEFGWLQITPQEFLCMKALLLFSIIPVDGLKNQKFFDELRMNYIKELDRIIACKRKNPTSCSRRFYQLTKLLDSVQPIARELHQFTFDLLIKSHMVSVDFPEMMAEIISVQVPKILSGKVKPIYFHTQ
Procedure: The androgen receptor (AR) agonistic and antagonistic activity of the compositions of the invention in the L929 cells which express the AR but not the PR was evaluated as described in Zhang et al., Steroids, 65(10–11): 637–643 (October–November 2000).
Cells were plated in 96-well plates at 25,000 cells/well in DMEM (BioWhittaker) with 10% (v/v) fetal bovine serum (FBS). The next day, cells were infected with the adenovirus PRE-tk-luciferase reporter construct (2×10^9 pfu/ml particles) and kept in DMEM containing 10% charcoal stripped FBS for an additional 24 hours. […] To test the anti-androgenic activity, cells were co-treated with 3 nM DHT. Luciferase activity was measured 24 hours following the treatment.

acne vulgaris = assay: Treatment of acne in a human patient, oral tablet daily; type: in vivo; settings: about 20 mg tablet orally daily
Procedure: A human patient having acne vulgaris is treated according to the present invention. Specifically, 5-(5-Cyano-1-methyl-1H-pyrrol-2-yl)spiro[cyclohexane-1,3′-[3H]indol]-2′-ylidenecyanamide is orally delivered to the patient daily. Delivery is in the form of a tablet formulated to contain about 20 mg of 5′-(5-Cyano-1-methyl-1H-pyrrol-2-yl)spiro[cyclohexane-1,3′-[3H]indol]-2′-ylidenecyanamide.

eczema = assay: Conditioning the skin of a human patient with severe eczema; type: in vivo; settings: about 50 mg daily
Procedure: A human patient having a severe form of eczema is treated according to the present invention. Specifically, about 50 mg of 5′-(5-Cyano-1-methyl-1H-pyrrol-2-yl)spiro[cyclohexane-1,3′-[3H]indol]-2′-ylidenecyanamide is delivered to the patient daily.

`Cn1c(C#N)ccc1-c1ccc2c(c1)C1(CCCCC1)C(=NC#N)N2` [5′-(5-Cyano-1-methyl-1H-pyrrol-2-yl)spiro[cyclohexane-1,3′-[3H]indol]-2′-ylidenecyanamide] was tested, and the agonistic activity (androgen receptor (AR); at the maximum concentration tested (10 nM)) was “only marginal agonistic activity”, the IC50 (androgen receptor (AR); co-treated with 3 nM DHT, luciferase activity 24 hours after treatment, read-out: IC50 (anti-androgenic activity)) was 313 nM and the antagonistic activity (androgen receptor (AR); nine point dose response, co-treated with 3 nM DHT) was “significant antagonistic activity”. The acne vulgaris (acne vulgaris; after about 24 weeks) was “improvement in the acne vulgaris is observed”, the “presence of lesions caused by acne vulgaris” value (acne vulgaris; forty-five to sixty days after the treatment) was “a decrease in the presence of lesions caused by acne vulgaris is noticed” and the eczema (eczema; after about 12 weeks) was “improvement in the eczema is observed”. The “dryness of the skin” value (eczema; thirty days after the treatment) was “a decrease in the dryness affected to the skin is noticed”.
